One molecule from paper PMC9698773, “Design, Synthesis, Molecular Modeling, and Anticancer Evaluation of New VEGFR-2 Inhibitors Based on the Indolin-2-One Scaffold” (Pharmaceuticals, 2022) can be followed below.

The subject of the assay is caspase-9. The experiment in a line: Caspase-9 expression assay (quantitative real-time PCR). The conditions noted are these: HepG2, 1.13 µM, 24 h; control = 1. Type of assay: cell-based, human. The procedure: The gene expression fold change of caspase-3 and -9 in the HepG2 cells treated with 1.13 µM of compound 17a for 24 h was determined using quantitative real-time PCR analysis.
The expression of caspase-3 and -9 in the liver HepG2 cells treated with 1.13 μM of 17a was determined using quantitative real-time PCR analysis, as presented in the Supplementary Materials.
Pharmaceuticals 2022, 15, x FOR PEER REVIEW 3 of 22
Figure S1. Simple linear regression for the correlation between cytotoxicity against HepG2 cell line […]
Figure S2. Simple linear regression for the correlation between cytotoxicity against MCF‐7 cell line […]
4.2.3. Cell cycle analysis
To determine the role of the synthesized compounds in cell cycle distribution, cell cycle analysis was performed using propidium iodide (PI) staining and flow cytometry analysis for compound 17a. […] The stained cells were measured using a BD FACSCalibur™ Flow Cytometer, and the data were analyzed using Flowing software (version 2.5.1, Turku Centre for Biotech‐ […]
Flow cytometry cell apoptosis analysis was used to investigate the apoptotic effect of the synthesized compounds. […] The stained cells were measured using a BD FACSCalibur™ Flow Cytometer and analyzed using Flowing software. […]
The expression of BAX and Bcl‐2 proteins were determined using Western blot anal‐ ysis. […]

Where “and” joins values, the source holds several entries; their conditions need not be identical. Equal entries are not always repeated.

Consider `O=C1Nc2ccccc2C1=Nc1ccc(C(=O)NNC(=S)Nc2ccccc2)cc1` [Compound 17a, 2-(4-((2-Oxoindolin-3-ylidene)amino)benzoyl)-N-phenylhydrazinecarbothioamide], for which the “Gene Expression Fold Change (Normalized to β-Actin) Caspases-9” value is 3.7 fold and 3.703 fold.
